Reference: patent publication US20200360260A1, “TOPICAL COMPOSITION COMPRISING ANTIMICROBIAL LIPID” (Conopco, Inc., d/b/a UNILEVER, priority 2017, published 2020)

Tests used:
Type in all cases: cell-based
Conditions in all cases: for combined effect with AMLs: in combination with AMLs
[1] = system: M. furfur (CBS1878); assay: ΣFIC assay against M. furfur
Protocol: (§1) Method: ΣFIC Assay Against M. Furfur, S. Aureus and P Acnes
(§2) M. furfur (CBS1878) was inoculated into Pityrosporum Broth (PB, solution A) and incubated in a shaking incubator at 32° C. for 2 days. The suspension containing the microbe was then diluted 10-times by PB and incubated again at 32° C. for another 2 days. The inoculum was further diluted by PB to get around 10^4 cells /ml. S. aureus (ATCC 12600) was inoculated into Tryptone Soya Broth (TSB, Oxoid: CM0129) and incubated in a shaking incubator at 37° C. for 1 day. The suspension containing the microbe was then diluted 10-times with TSB and incubated again at 37° C. for another 1 day. The inoculum was further diluted by TSB to get around 10^5 cells/ml.
(§3) Honokiol (Ex. Sigma) 50 mg/ml in DMSO (50,000 ppm); Magnolol (Ex. Sigma) 50 mg/ml in DMSO (50,000 ppm); Sapienic acid (Ex. Parchem, CAS# 17004-51-2) 100 mg/ml in 100% ethanol (100,000 ppm); D-Sphingosine (Ex. Sigma S7049) 5 mg/ml in 50% ethanol (5,000 ppm); D-erythro-Dihydrosphingosine (Ex. Sigma D3314) 5 mg/ml in 50% ethanol (5,000 ppm); Phytosphingosine (Ex. Evonik) 5 mg/m stock in 50% ethanol (5,000 ppm); Palmitoleic acid (Ex. Sigma 76169) 100 mg/ml in 100% ethanol (100,000 ppm).
(§4) The ΣFIC test was conducted based on the principle previously described in Hall M J, Middleton R F, & Westmacott D (1983), The fractional inhibitory concentration (FIC) index as a measure of synergy. Journal of Antimicrobial Chemotherapy 11(5):427-433. The procedure is as follows:
(§5) Twenty (20) μl of compound A (honokiol or magnolol as applicable to the test) and 20 μl of compound B (a selection of different AMLs as applicable to the test) were mixed in corresponding wells of a 96-well plate. An amount of 160 μl of microbial suspension was dispensed in each well and the broth medium as taken as a blank control for comparison of results. The total reaction volume in each well was 200 μl.
(§6) Thereafter the 96-well plates were incubated in an incubator. In accordance with the test protocols that were followed, M. furfur was incubated aerobically at 32° C. for 1 day, S. aureus was incubated aerobically at 37° C. for 1 day and P. acnes was incubated anaerobically at 37° C. for 4 days. Thereafter 20 μl alamar blue (0.1%) was dispensed in each well and the procedure of incubation (as abovementioned) was repeated. Finally, the change in colour of the indicator was monitored to check for visible signs of microbial growth or inhibition of the growth. If the colour changed to red it indicated growth (of microbes) and blue indicated no growth or inhibition of growth.
(§7) After all the observations were recorded and tabulated, the Fractional Inhibition Concentration (FIC) was calculated. The combination effect of inhibitory antimicrobials is widely explored using the concept of the Fractional Concentration (FC) and Fractional Inhibitory Concentration (FIC). This parameter is defined as follows:
(§8) ΣFIC=FIC (component 1)+FIC (component 2)
(§9) The final concentration of each ingredient in ppm (parts per million) after (10-fold dilution) was as follows. Each of these concentrations was tried out to determine the FIC value for (either of) honokiol or magnolol in combination with one of the AMLs.

[2] = system: S. aureus (ATCC 12600); assay: ΣFIC assay against S. aureus
Protocol: as §1, §2, §3, §4, §5, §6, §7, §8, §9

[3] = system: Propionibacterium acnes (ATCC 6919); assay: ΣFIC assay against P. acnes
Protocol: as §1
Propionibacterium acnes (ATCC 6919) was inoculated from freezer into liquid Reinforced Clostridial Medium (RCM, HepoBio: HB0316) for 3 days (anaerobic conditions) growth at 37° C. The suspension containing the microbe was then diluted 10-times with RCM and incubated again under 37° C. for another 3 days. The inoculum was further diluted by RCM to get around 10^4 cells/ml.
as §3, §4, §5, §6, §7, §8, §9

SMILES | The range of concentration of the ingredient (ppm) where the ΣFIC was less than 0.9: AML ([1]; in combination with honokiol) [ppm] | The range of concentration of the ingredient (ppm) where the ΣFIC was less than 0.9: AML ([1]; in combination with magnolol) [ppm] | The range of ratio of honokiol/AML (w/w) where ΣFIC was less than 0.9 [1] [w/w] | The range of ratio of magnolol/AML (w/w) where ΣFIC was less than 0.9 [1] [w/w] | The range of concentration of the ingredient (ppm) where the ΣFIC was less than 0.9: AML ([2]; in combination with honokiol) [ppm] | The range of concentration of the ingredient (ppm) where the ΣFIC was less than 0.9: AML ([2]; in combination with magnolol) [ppm] | The range of ratio of honokiol/AML (w/w) where ΣFIC was less than 0.9 [2] [w/w] | The range of ratio of magnolol/AML (w/w) where ΣFIC was less than 0.9 [2] [w/w] | The range of concentration of the ingredient (ppm) where the ΣFIC was less than 0.9: AML ([3]; in combination with honokiol) [ppm] | The range of concentration of the ingredient (ppm) where the ΣFIC was less than 0.9: AML ([3]; in combination with magnolol) [ppm] | The range of ratio of honokiol/AML (w/w) where ΣFIC was less than 0.9 [3] [w/w] | The range of ratio of magnolol/AML (w/w) where ΣFIC was less than 0.9 [3] [w/w] | combined effect with AMLs [1] | combined effect with AMLs [2] | combined effect with AMLs [3]
CCCCCCCCCCCCCCC[C@@H](O)[C@@H](N)CO [dihydrosphingosine, D-erythro-Dihydrosphingosine] | 31.25 to 125 | 15.63 to 125 | 5 to 40 | 5 to 80 | 0.63 to 2.50 | 0.63 to 1.25 | 0.8 to 12.5 | 0.4 to 12.5 | 0.63 to 2.50 | 0.63 to 2.50 | 0.2 to 6.5 | 0.7 to 6.5 |  |  | 
C=CCc1ccc(O)c(-c2ccc(O)c(CC=C)c2)c1 [honokiol, Honokiol] |  |  |  |  |  |  |  |  |  |  |  |  | synergistic effect | synergistic effect | synergistic effect
C=CCc1ccc(O)c(-c2cc(CC=C)ccc2O)c1 [magnolol, Magnolol] |  |  |  |  |  |  |  |  |  |  |  |  | synergistic effect | synergistic effect | synergistic effect
CCCCCC/C=C\CCCCCCCC(=O)O [palmitoleic acid, Palmitoleic acid] | 625 to 5000 | 625 to 5000 | 0.06 to 2 | 0.03 to 2 | 3.91 to 62.5 | 3.91 to 52.5 | 0.008 to 2 | 0.008 to 2 | 1.95 to 7.81 | 1.95 to 7.81 | 0.06 to 1 | 0.1 to 4 |  |  | 
CCCCCCCCCCCCCC[C@@H](O)[C@@H](O)[C@@H](N)CO [phytosphingosine, Phytosphingosine] | 15.63 to 62.5 | 3.91 to 62.5 | 10 to 80 | 10 to 320 | 0.63 to 5.00 | 0.63 to 2.50 | 0.4 to 12.5 | 0.2 to 12.5 | 1.25 to 5.00 | 0.63 to 5.00 | 0.2 to 3.2 | 0.4 to 12.5 |  |  | 
CCCCCCCCC/C=C\CCCCC(=O)O [sapienic acid, Sapienic acid] | 625 to 2500 | 625 to 5000 | 0.25 to 1 | 0.06 to 2 | 3.91 to 62.5 | 1.95 to 31.25 | 0.008 to 2 | 0.01 to 4 | 1.95 to 3.91 | 1.95 to 3.91 | 0.25 to 1 | 0.25 to 1 |  |  | 
CCCCCCCCCCCCC/C=C/[C@@H](O)[C@@H](N)CO [sphingosine, D-Sphingosine] | 31.25 to 250 | 31.25 to 125 | 1.25 to 40 | 5 to 40 | 0.31 to 1.25 | 0.31 to 0.63 | 0.8 to 25 | 1.5 to 25 | 0.31 to 1.25 | 0.31 to 1.25 | 0.7 to 13 | 1.5 to 13 |  |  | 
